Measured values taken from US20220323594A1, “LIPIDATED CATIONIC PEPTIDE-PEG COMPOSITIONS FOR NUCLEIC ACID DELIVERY” (NUTCRACKER THERAPEUTICS, INC., priority 2019, published 2022).

Columns and labels:
Balb/c mice [1] = experiment: In vivo whole-body expression of Fluc following IV administration; conditions: Balb/c mice (n=3), IV tail-vein, 0.5 mg/kg, 5:1 peptoid:mRNA, 2% w/w DMG-PEG2000, 8 hours
Protocol: (§1) Amino lipidated peptoid delivery vehicles are effective for in vivo administration of Fluc mRNA to Balb/c mice (n=3) through multiple routes of administration. Briefly, representative amino lipidated peptoid/Fluc formulations (prepared at a 5:1 mass ratio of amino lipidated peptoid:mRNA unless noted, with 2% w/w DMG-PEG2000) were administered at a dose of 0.5 mg/kg via a tail-vein injection, and the resulting bioluminescence was quantified after 8 hours.

HeLa cells [2] = experiment: In vitro Fluc expression with variable peptoid:mRNA mass ratio, 2% DMG-PEG2000; assay type: cell-based; conditions: 24 h
Summary of the method: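 Fluc mRNA particles formulated at 2:1, 3.5:1, 5:1 and 7.5:1 peptoid:mRNA (w/w), with DMG-PEG2000 at 2% (w/w) relative to amino lipidated peptoid. HeLa cells treated for 24 hours; Fluc expression read as bioluminescence (RLU).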

HeLa cells [3] = experiment: In vitro expression of firefly luciferase (Fluc) after treatment with Fluc mRNA/amino lipidated peptoid formulations, no PEG or 2% DMG-PEG2000; assay type: cell-based
Summary of the method: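 Peptoid/Fluc mRNA particles (5:1 w/w), without PEG or with DMG-PEG2000 pre-mixed into peptoid at 2% w/w, dosed at 100 ng mRNA/well on HeLa cells. Luciferase luminescence (RLU) read after 6 h and 24 h.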

[4] = Dynamic light scattering (DLS) of mRNA/peptoid formulations: particle size and polydispersity; assay type: physicochemical; conditions: Fluc mRNA/peptoid formulation
Summary of the method: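 Fluc mRNA was complexed with amino lipidated peptoids by pipetting at a 5:1 peptoid:cargo mass ratio, peptoid in ethanol and mRNA in PBS pH 5.5 (1:3 volume ratio). DLS gave volume-average diameter (nm) and polydispersity index.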

Balb/c mice [5] = experiment: In vivo expression of Fluc following subcutaneous or intramuscular administration
Protocol: In addition to IV administration, amino lipidated peptoids are also effective for local administration of mRNA through subcutaneous (S.C.) or intramuscular (I.M.) routes of administration. […] For these examples, mRNA was administered at a dose of 0.1 milligrams/kilogram (mpk) for subcutaneous or 0.05 mpk for intramuscular. In these cases, the overall expression was higher following intramuscular injections. […] Additional experiments were carried out to assess any variability in biodistribution as a function of the loading mass ratio of amino lipidated peptoid to the Fluc mRNA. FIG. 8A depicts a plot of total photon flux for formulations of amino lipidated peptoid compound 28 with 2% DMG-PEG 2000 and Fluc mRNA at different peptoid:mRNA ratios (1:1, 2:1, 5:1, 7.5:1 and 10:1).

[6] = MTT viability assay after treatment with Fluc mRNA/amino lipidated peptoid formulations; assay type: cell-based; conditions: human, HeLa cells
Summary of the method: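 Formulations (peptoid:mRNA 5:1 mass ratio, 2% w/w DMG-PEG2000) were applied at 100 ng Fluc mRNA per well for 8 h, followed by 48 h of growth. Cells then received 1.5 mg/mL MTT for 2 h, and formazan signal was normalized to untreated cells.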

Balb/c mice [7] = experiment: In vivo organ-specific bioluminescence (biodistribution of Fluc) following IV administration
Protocol: as §1, with “hours. […] Organ-specific bioluminescence was quantified by sacrificing the treated animal, dissecting out the organs of interest, and separately quantifying the resulting bioluminescence. […] FIG. 7C depicts a bar chart quantifying the organ-specific biodistribution of the formulations as a function of total photon flux.” for “hours.”

[8] = mRNA encapsulation by fluorescence of Qubit RNA HS dye before and after lysis with Triton X-100; assay type: physicochemical; conditions: percentage of mRNA encapsulation; Fluc mRNA/peptoid formulation, 5:1 mass ratio
Summary of the method: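 Peptoid/Fluc mRNA nanoparticles were formed by pipette mixing at a 5:1 peptoid:mRNA mass ratio. Percent encapsulation came from Qubit RNA HS dye fluorescence before versus after particle lysis with Triton X-100.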

CCCCCCCCCCN(CC(N)=O)C(=O)CN(CCCCCCCCCC)C(=O)CN(CCCCCCCCCC)C(=O)CN(CCCCCCCCCC)C(=O)CN(CCc1ccccc1)C(=O)CN(CCc1ccccc1)C(=O)CN(CCCN)C(=O)CN(CCc1ccccc1)C(=O)CN(CCc1ccccc1)C(=O)CN(CCCN)C(=O)CN(CCc1ccccc1)C(=O)CN(CCc1ccccc1)C(=O)CNCCCN [Compound 28]
Total Flux (photons/sec), whole body (Balb/c mice [1]): 2.36E+08 photons/sec
Observed Luciferase Expression (RLU) for Given Formulation Mass Ratio 2:1 (HeLa cells [2]; 2% (w/w) DMG-PEG2000, peptoid:mRNA 2:1): 1.26E+02 RLU
Observed Luciferase Expression (RLU) for Given Formulation Mass Ratio 3.5:1 (HeLa cells [2]; 2% (w/w) DMG-PEG2000, peptoid:mRNA 3.5:1): 1.93E+03 RLU
Observed Luciferase Expression (RLU) for Given Formulation Mass Ratio 5:1 (HeLa cells [2]; 2% (w/w) DMG-PEG2000, peptoid:mRNA 5:1): 5.75E+03 RLU
Observed Luciferase Expression (RLU) for Given Formulation Mass Ratio 7.5:1 (HeLa cells [2]; 2% (w/w) DMG-PEG2000, peptoid:mRNA 7.5:1): 2.07E+04 RLU
Luciferase Expression (RLU) 6 h (HeLa cells [3]; no PEG, peptoid:Fluc mRNA 5:1 w/w, 100 ng/well, 6 h of treatment): 9.59E+02 RLU
Luciferase Expression (RLU) 24 h (HeLa cells [3]; no PEG, peptoid:Fluc mRNA 5:1 w/w, 100 ng/well, 24 h of treatment): 4.97E+03 RLU
Luciferase Expression (RLU) 6 h (HeLa cells [3]; with 2% (w/w) DMG-PEG2000, peptoid:mRNA 5:1, 6 h after treatment): 8.33E+02 RLU
Luciferase Expression (RLU) 24 h (HeLa cells [3]; with 2% (w/w) DMG-PEG2000, peptoid:mRNA 5:1, 24 h after treatment): 6.94E+02 RLU
Size PDI ([4]; size polydispersity index by DLS, 5:1 mass ratio): 0.085
Size (nm) ([4]; volume average particle size/diameter by DLS, 5:1 mass ratio peptoid:cargo): 308 nm
expression after IM administration compared with Compound 8 (Balb/c mice [5]; intramuscular): significantly outperformed that example
Total Flux (photons/sec) I.M. (0.05 mpk) (Balb/c mice [5]; intramuscular, mRNA 0.05 mpk): 7.23E+06 photons/sec
Total Flux (photons/sec) S.C. (0.1 mpk) (Balb/c mice [5]; subcutaneous, mRNA 0.1 mpk): 1.65E+06 photons/sec
viability at 8 h, 500 ng/well ([6]; Relative Viability (%) 2% PEG): 92.7%
viability at 8 h, 500 ng/well ([6]; Relative Viability (%) No PEG): 85.4%
Total Flux (p/s) Liver (Balb/c mice [7]; dissected liver): 1.10E+07 p/s
Total Flux (p/s) Lung (Balb/c mice [7]; dissected lung): 7.08E+07 p/s
Total Flux (p/s) Spleen (Balb/c mice [7]; dissected spleen): 2.16E+08 p/s
organ localization of Fluc expression (Balb/c mice [7]; organ-specific bioluminescence): preferential localization in other organs such as the spleen
% Encapsulation [8]: 52.0%
